{
  "source": "patent US12485134B2",
  "about": "“Use of nicotinamide riboside, nicotinic acid riboside, reduced nicotinyl riboside compounds, and nicotinyl riboside compound derivatives in formulations” (ChromaDex Inc., priority 2019, dated 2025)",
  "key": {"[1]": {"experiment": "Stability of NR-Cl in whey protein isolate solutions (% nicotinamide degradant, vs control of NR-Cl in water only)", "assay_type": "physicochemical", "settings": "for increase in nicotinamide: after 1 day at refrigerated conditions", "method": "A. Solutions of hydrolyzed whey protein isolate (>90% protein, 2-7% degree of hydrolysis) were prepared at varying concentrations and filtered through 0.2 μm sterile filters. An aliquot of sterile nicotinamide riboside chloride (“NR-Cl,” a salt of NR, I) in water solution was spiked into the sterile whey solutions, targeting a final NR-Cl concentration of 1 mmol per liter (0.3 mg/mL). The solutions containing the mixture of hydrolyzed whey and NR-Cl were filtered through 10 kDa molecular weight cutoff centrifuge filters to remove the whey proteins (14-80 kDa) and any NR-Cl that was bound to the proteins. Any NR-Cl that was not bound to the whey proteins was recovered in the filtrate and quantitated by HPLC.\nThe solutions of hydrolyzed whey protein isolate and NR-Cl were stored at ambient and refrigerated conditions and analyzed at various timepoints for NR-Cl protein binding and stability.\nA study measuring the stability of NR-Cl in hydrolyzed and non-hydrolyzed whey protein was conducted with 2 mmol/L NR-Cl (0.6 mg/mL) and 20 mg/mL protein (33.3:1 wt:wt protein:NR-Cl). […] (See Table 5)."}, "soy isolate proteins": {"tested_on": "soy isolate proteins", "experiment": "WaterLOGSY NMR binding of NR-Cl", "settings": "native vs denatured, pH 7.0", "method": "WaterLOGSY is a sensitive ligand-observed NMR experiment designed for the screening of protein ligands from a mixture of potential binders. […] The experiment relies on fast dissociation of bound ligands to carry into the free state magnetisation originating from irradiated water that has been transmitted via the protein complex.\nNMR samples for WaterLOGSY were prepared as follows. Ligand-detect WaterLOGSY experiments were carried at 600 MHz with 5-mm cryoprobe and using 5-mm NMR tubes. Each NMR sample for WaterLOGSY contained ˜0.05 mg (˜0.35 mM), using unlabeled ligand NR-Cl (“NR”), in a NMR buffer containing ˜0.5 mL 90% H2O/10% ^2H2O at pH 7.0 with or without the milk and soy protein mix (compared to the WaterLOGSY of NR as a negative control). Protein was added as a powder with a minimal 15 to 50 μM concentration. Typically, the final NMR sample of protein-compound mixtures had >20-fold higher compound concentration of ligand compared to that of the protein. Denatured samples were prepared by simply heating (80° C. for 15-20 mins) the aqueous (5-10% ^2H2O) protein mixture (in absence of NR)."}},
  "data": [
    {"smiles": "NC(=O)c1ccc[n+]([C@@H]2O[C@H](CO)[C@@H](O)[C@H]2O)c1.[Cl-]", "note": "[NR-Cl, nicotinamide riboside chloride]", "values": [
      {"measurement": "% Nicotinamide", "setting": "[1]; Control (NR-Cl in water only), 0 days ambient", "value": 0.2, "unit": "%"},
      {"measurement": "% Nicotinamide", "setting": "[1]; Control (NR-Cl in water only), 0 days refrigerated", "value": 0.2, "unit": "%"},
      {"measurement": "% Nicotinamide", "setting": "[1]; Control (NR-Cl in water only), 3 days ambient", "value": 3.8, "unit": "%"},
      {"measurement": "% Nicotinamide", "setting": "[1]; Control (NR-Cl in water only), 5 days ambient", "value": 4.8, "unit": "%"},
      {"measurement": "% Nicotinamide", "setting": "[1]; Control (NR-Cl in water only), 7 days ambient", "value": 5.3, "unit": "%"},
      {"measurement": "% Nicotinamide", "setting": "[1]; Control (NR-Cl in water only), 30 days refrigerated", "value": 2.3, "unit": "%"},
      {"measurement": "% Nicotinamide", "setting": "[1]; Hydrolyzed Whey Protein Isolate 20 mg/mL, 2 mmol/L NR-Cl (33.3:1 wt:wt), 0 days refrigerated", "value": 0.1, "unit": "%"},
      {"measurement": "% Nicotinamide", "setting": "[1]; Hydrolyzed Whey Protein Isolate 20 mg/mL, 2 mmol/L NR-Cl (33.3:1 wt:wt), 1 day refrigerated", "value": 0.1, "unit": "%"},
      {"measurement": "% Nicotinamide", "setting": "[1]; Non-Hydrolyzed Whey Protein Isolate 20 mg/mL, 2 mmol/L NR-Cl (33.3:1 wt:wt), 0 days refrigerated", "value": 0.3, "unit": "%"},
      {"measurement": "% Nicotinamide", "setting": "[1]; Non-Hydrolyzed Whey Protein Isolate 20 mg/mL, 2 mmol/L NR-Cl (33.3:1 wt:wt), 1 day refrigerated", "value": 5.4, "unit": "%"},
      {"measurement": "increase in nicotinamide", "setting": "[1]; hydrolyzed whey solution", "value": "did not show any increase"},
      {"measurement": "% Nicotinamide", "setting": "[1]; hydrolyzed whey:NR-Cl 18.3:1 (wt:wt), 0 days ambient", "value": 0.1, "unit": "%"},
      {"measurement": "% Nicotinamide", "setting": "[1]; hydrolyzed whey:NR-Cl 18.3:1 (wt:wt), 0 days refrigerated", "value": 0.1, "unit": "%"},
      {"measurement": "% Nicotinamide", "setting": "[1]; hydrolyzed whey:NR-Cl 18.3:1 (wt:wt), 3 days ambient", "value": 2.2, "unit": "%"},
      {"measurement": "% Nicotinamide", "setting": "[1]; hydrolyzed whey:NR-Cl 18.3:1 (wt:wt), 5 days ambient", "value": 3.3, "unit": "%"},
      {"measurement": "% Nicotinamide", "setting": "[1]; hydrolyzed whey:NR-Cl 18.3:1 (wt:wt), 7 days ambient", "value": 3.9, "unit": "%"},
      {"measurement": "% Nicotinamide", "setting": "[1]; hydrolyzed whey:NR-Cl 18.3:1 (wt:wt), 30 days refrigerated", "value": 1.5, "unit": "%"},
      {"measurement": "% Nicotinamide", "setting": "[1]; hydrolyzed whey:NR-Cl 37:1 (wt:wt), 0 days ambient", "value": 0.2, "unit": "%"},
      {"measurement": "% Nicotinamide", "setting": "[1]; hydrolyzed whey:NR-Cl 37:1 (wt:wt), 0 days refrigerated", "value": 0.2, "unit": "%"},
      {"measurement": "% Nicotinamide", "setting": "[1]; hydrolyzed whey:NR-Cl 37:1 (wt:wt), 3 days ambient", "value": 2.1, "unit": "%"},
      {"measurement": "% Nicotinamide", "setting": "[1]; hydrolyzed whey:NR-Cl 37:1 (wt:wt), 5 days ambient", "value": 3.1, "unit": "%"},
      {"measurement": "% Nicotinamide", "setting": "[1]; hydrolyzed whey:NR-Cl 37:1 (wt:wt), 7 days ambient", "value": 3.8, "unit": "%"},
      {"measurement": "% Nicotinamide", "setting": "[1]; hydrolyzed whey:NR-Cl 37:1 (wt:wt), 30 days refrigerated", "value": 1.4, "unit": "%"},
      {"measurement": "% Nicotinamide", "setting": "[1]; hydrolyzed whey:NR-Cl 73:1 (wt:wt), 0 days ambient", "value": 0.2, "unit": "%"},
      {"measurement": "% Nicotinamide", "setting": "[1]; hydrolyzed whey:NR-Cl 73:1 (wt:wt), 0 days refrigerated", "value": 0.2, "unit": "%"},
      {"measurement": "% Nicotinamide", "setting": "[1]; hydrolyzed whey:NR-Cl 73:1 (wt:wt), 3 days ambient", "value": 2.4, "unit": "%"},
      {"measurement": "% Nicotinamide", "setting": "[1]; hydrolyzed whey:NR-Cl 73:1 (wt:wt), 5 days ambient", "value": 3.2, "unit": "%"},
      {"measurement": "% Nicotinamide", "setting": "[1]; hydrolyzed whey:NR-Cl 73:1 (wt:wt), 7 days ambient", "value": 4.2, "unit": "%"},
      {"measurement": "% Nicotinamide", "setting": "[1]; hydrolyzed whey:NR-Cl 73:1 (wt:wt), 30 days refrigerated", "value": 1.6, "unit": "%"},
      {"measurement": "% Nicotinamide", "setting": "[1]; hydrolyzed whey:NR-Cl 147:1 (wt:wt), 0 days ambient", "value": 0.3, "unit": "%"},
      {"measurement": "% Nicotinamide", "setting": "[1]; hydrolyzed whey:NR-Cl 147:1 (wt:wt), 3 days ambient", "value": 2.4, "unit": "%"},
      {"measurement": "% Nicotinamide", "setting": "[1]; hydrolyzed whey:NR-Cl 147:1 (wt:wt), 5 days ambient", "value": 3.4, "unit": "%"},
      {"measurement": "% Nicotinamide", "setting": "[1]; hydrolyzed whey:NR-Cl 147:1 (wt:wt), 7 days ambient", "value": 4.1, "unit": "%"},
      {"measurement": "% Nicotinamide", "setting": "[1]; hydrolyzed whey:NR-Cl 293:1 (wt:wt), 0 days ambient", "value": 0.6, "unit": "%"},
      {"measurement": "% Nicotinamide", "setting": "[1]; hydrolyzed whey:NR-Cl 293:1 (wt:wt), 3 days ambient", "value": 2.8, "unit": "%"},
      {"measurement": "% Nicotinamide", "setting": "[1]; hydrolyzed whey:NR-Cl 293:1 (wt:wt), 7 days ambient", "value": 4.4, "unit": "%"},
      {"measurement": "increase in nicotinamide", "setting": "[1]; non-hydrolyzed whey solution", "value": 5, "unit": "%"},
      {"measurement": "WaterLOGSY binding", "setting": "soy isolate proteins", "value": "increase in binding with NR-Cl only after denaturation"}
    ]}
  ]
}
